From ChEMBL document CHEMBL1126539, “Oxazole, thiazole, and imidazole derivatives of 2,6-di-tert-butylphenol as dual 5-lipoxygenase and cyclooxygenase inhibitors” (Bioorg Med Chem Lett, 1993) come the findings set out here.

Experiment [1] relates to RBL-1. Kind of experiment: Compound was tested for its inhibitory activity against PGF-2 alpha (CO) formation in RBL-1 cells stimulated with the calcium ionophore A-23187. The class given is functional, cell-based. Particulars: Rattus norvegicus.
Experiment [2] deals with RBL-1. Kind of experiment: Compound was tested for its inhibitory activity against LTB4 (5-LO) formation in RBL-1 cells stimulated with the calcium ionophore A-23187. The format is functional, cell-based. To be noted: Rattus norvegicus.
Experiment [3] relates to Rattus norvegicus. The experiment can be described thus: Compound was tested for inhibition of edema in the carrageenan foot-pad edema test; inactive. The class given is functional. Background: The carrageenan paw model is a standard test of acute inflammation.

Where only a bound is given, the exact number is not on record here.

One may read the IC50 as the concentration at which inhibition is half-maximal. `CC(C)(C)c1cc(/C=C2\SC(=S)NC2=O)cc(C(C)(C)C)c1O`: the IC50 in experiment [1] was 12 nM; in experiment [2] it was 380 nM.

For the compound `CC(C)(C)c1cc(/C=C2\SC(=N)NC2=O)cc(C(C)(C)C)c1O` [DARBUFELONE], the IC50 stood at 110 nM in experiment [1] and 1200 nM in experiment [2].

Regarding `CC(C)(C)c1cc(/C=C2\OC(N=C(N)N)=NC2=O)cc(C(C)(C)C)c1O`, the IC50 amounted to 340 nM in experiment [1] and 1200 nM in experiment [2].

The term Inhibition denotes the relative decrease from the control value, in per cent. Low values mean a weak effect, high ones a strong effect. Consider `CN1C(=O)NC(=O)/C1=C/c1cc(C(C)(C)C)c(O)c(C(C)(C)C)c1`, for which the IC50 in experiment [1] amounted to 4600 nM; in experiment [2], 780 nM. Further, the Inhibition in experiment [3] is reported as less than 25%.

Turning to `Cc1ccc(Cl)c(Nc2ccccc2C(=O)O)c1Cl` [MECLOFENAMATE SODIUM], the IC50 in experiment [2] came out at 24000 nM.

`CN1C(NC(=N)N)=NC(=O)/C1=C/c1cc(C(C)(C)C)c(O)c(C(C)(C)C)c1`: the IC50 in experiment [1] was 2100 nM; in experiment [2] it was 1300 nM. The compound further showed an Inhibition in experiment [3] of less than 25%.

In the case of `CC(C)(C)c1cc(/C=C2\OC(=S)NC2=O)cc(C(C)(C)C)c1O`, the IC50 in experiment [1] is 1700 nM; in experiment [2] it was 840 nM.

As for `CC(C)(C)c1cc(/C=C2\SC(=O)NC2=O)cc(C(C)(C)C)c1O`, the IC50 in experiment [1] is 350 nM.

As to `CC(C)(C)c1cc(/C=C2\SC(N=C(N)N)=NC2=O)cc(C(C)(C)C)c1O`, the IC50 in experiment [1] turned out to be 83 nM; in experiment [2], 910 nM.

On to `CN1C(=S)NC(=O)/C1=C/c1cc(C(C)(C)C)c(O)c(C(C)(C)C)c1`, for which the figures for the IC50 in experiment [1] and in experiment [2] were 790 nM and 170 nM, respectively. Further, in experiment [3], the Inhibition was less than 25%.

Take `CC(C)(C)c1cc(/C=C2\OC(=O)NC2=O)cc(C(C)(C)C)c1O`: the IC50 was 650 nM in experiment [1] and 2800 nM in experiment [2].
